PubChem BioAssay AID1626 (SRMLSC, 2009)

Test system: M. tuberculosis H37Rv growth inhibition
Experiment: M. tuberculosis H37Rv growth inhibitors, H37Rv strain (AID 1626)
Details: for IC90: measured here: IC90 against H37Rv; for CC50: measured here: Vero cell cytotoxicity

Structure (SMILES)	IC50 [µM]	IC90 [µM]	CC50 [µM]
Cc1c(Cc2ccccc2)c(=O)n2c([nH]c3ccccc32)c1C#N	3.04	> 100	13
Cc1nn(-c2ccccc2)c(Cl)c1CN(C(=O)CCl)c1ccc(Cl)cc1	13.5	31.3	1.82
COc1cc2nc(C3CCC3)nc(N3CCN(c4ccccc4OC)CC3)c2cc1OC	3.9	6.52	> 40
Cc1cc(NCCCn2ccnc2)n2nc(C)c(-c3ccc(Cl)cc3)c2n1	4.03	5.75	12.9
COc1cccc(-c2nnc(NC(=O)c3ccccc3Br)o2)c1	3.79	9.35	> 40
CCOC(=O)c1ccc(NC(=O)CSC2=NC(=O)C(CC)C(=O)N2)cc1 (stereo not drawn)	24.3	> 100	–
CCCCCCCCCn1c2c(c(=N)c3c1CCC3)CCCC2	4.41	5.68	7.25
CCc1ccc(NC(=O)CSc2nnc(-c3ccccn3)n2C)cc1	–	> 100	–
CCOC(=O)c1c(NC(=O)C2COc3ccccc3O2)sc2c1CC(C)(C)NC2(C)C (stereo not drawn)	12.6	13.7	–
O=C(COC(=O)c1ccc(Cl)s1)c1ccc[nH]1	8.14	16.7	–
O=c1[nH]c(-c2ccccn2)nc(C(F)(F)F)c1Br	0.487	1.02	33.4
Cc1cccc(OCCCCc2c(C)n[nH]c2C)c1C	2.75	3.87	30.2
O=C(/C=C/c1ccccc1)C1C(=O)c2ccccc2C1=O	23.5	26.5	32.1
Clc1ccc(-n2nnnc2Sc2ncnc3sccc23)cc1	63.4	> 100	10.5
CCOC(=O)CN(C#N)c1nc(N(C)C)nc(N(C)C)n1	9.34	11.7	–
Cc1ncn(-c2ccc(C(=O)Oc3ccccc3)cn2)n1	12.3	> 100	35.3
CCc1ccc2[nH]c(O)c(N=Nc3nc(-c4ccccc4)cs3)c2c1	1.81	3.44	37
O=C(Oc1ccc(Cl)cc1)c1ccc(COC(=O)c2cnccn2)cc1	6.54	9.41	> 40
CN1CCN(c2nc(-c3ccccc3)nc(-c3ccc(F)cc3)c2C#N)CC1	23.9	> 100	> 40
CC1CCN(c2nc(-c3ccncc3)nc3ccccc23)CC1	4.62	6.52	> 40
CC(C)Cn1c(N)c(C(=O)COC(=O)c2cnc(Cl)c(Cl)c2)c(=O)n(C)c1=O	8.01	20.7	> 40
Cc1ccc(NC2=C/C(=N\S(=O)(=O)c3cccs3)c3ccccc3C2=O)c(C)c1	3.89	5.64	3.74
CC(=O)OCCCNc1cc(Sc2nc3ccccc3s2)c2nonc2c1[N+](=O)[O-]	7.74	10.1	16.3
O=C(CCl)Nc1ccccc1C(=O)NCc1ccccc1	8.16	21.2	24.4
O=[N+]([O-])c1cc(CN2CCCC2)ccc1Sc1ccc(Cl)cc1	29.8	> 100	> 40
Nc1c2c(nc3ccc(Br)cc13)N(C1CCCCC1)CC2	8.28	11.1	> 40

Structure (SMILES)	IC50 [µM]	IC90 [µM]	CC50 [µM]
Cc1cc(C)n(-c2nc(NC(C)(C)C)nc(NC(C)(C)C)n2)n1	< 0.195	21	> 40
O=C(NCCCN1CCOCC1)c1ccc([N+](=O)[O-])cc1[N+](=O)[O-]	6.25	> 100	–
CSc1ccccc1NC(=O)c1cc(C2CC2)on1	23.6	26.7	–
C=CCOc1ccc(CN(C)Cc2nc3cc(C(F)(F)F)ccc3c(=O)[nH]2)cc1	12.4	> 100	–
CC(NC(=O)c1ccc([N+](=O)[O-])cc1[N+](=O)[O-])c1ccc(-c2ccccc2)cc1 (stereo not drawn)	2.51	> 100	> 40
COc1ccc(C[C@H]2CN3C(=NC[C@@H]3Cc3ccccc3)N2CCNC(=O)CCC2CCCCC2)cc1	9.05	11.6	17.7
Cc1ccc(-n2nnnc2SC(C)C(=O)Nc2ccc(Cl)cn2)cc1 (stereo not drawn)	16.5	29.1	26.7
CC1(C)C2CCC1(C)C(NC(=O)/C=C/c1ccccc1)C2 (stereo not drawn)	< 0.195	18.1	> 40
O=[N+]([O-])c1ncn(Cc2c(Cl)cccc2Cl)n1	36.6	> 100	–
COc1ccc(-c2oc3ccc(N4CCOCC4)cc3c2C#CC2(O)CCCCC2)cc1	–	–	> 40
CCC/C(O)=C1\C(=O)CCCC1=NCCc1c(C)[nH]c2ccc(C)cc12	–	> 100	–
CC(=O)n1cc(N(C(=O)CCl)c2ccc([N+](=O)[O-])cc2)c2ccccc21	14	30.3	14.7
Oc1ccccc1N1CCN(c2ncnc3sc(-c4ccccc4)cc23)CC1	9.21	13	> 40
CN1/C(=C/C(=O)c2nc(S(C)(=O)=O)ncc2Cl)C(C)(C)c2ccccc21	12	13.7	> 40
CN1Cc2c(N3CCOCC3)nc3sc(C(=O)c4ccc(Br)cc4)c(N)c3c2CC1(C)C	5.56	6.26	10.2
CC(=O)Nc1nc2ccccc2n1Cc1ccccc1	2.74	3.59	> 40
O=C(Nc1nc(-c2ccccn2)cs1)C1CC(=O)N(c2ccc3c(c2)OCCO3)C1 (stereo not drawn)	17.2	> 100	36.7
CCOc1ccc(N=C(/C(C(=O)C(=O)N2CCOCC2)=C(\O)c2ccccc2)c2ccccc2)cc1	38.6	> 100	–
CCCCCCn1c(=O)c(C(=O)Nc2nnc(C)s2)c(O)c2ccccc21	4.65	6	> 40
Cc1cccc(N2CCN(C(=O)c3ccc(CNc4c(N5CCC(C)CC5)c(=O)c4=O)cc3)CC2C)c1 (stereo not drawn)	15.8	22.2	> 40
Cc1cccc(OCC(O)Cn2c(=N)n(CCN3CCCCC3)c3ccccc32)c1 (stereo not drawn)	5.87	6.69	35.8
Cc1cccc(Cc2cnc(N3C(=N)SC(c4ccccc4)C3=O)s2)c1 (stereo not drawn)	8.81	> 100	36.8
CCOC(=O)COc1ccc(/C=C2/SC(=Nc3ccccc3)N(Cc3cccnc3)C2=O)cc1OC	10.4	> 100	> 40
NS(=O)(=O)c1ccc(CCNc2ncnc3c2c(-c2ccccc2)cn3-c2ccc(F)cc2)cc1	5.77	6.76	> 40
COC(=O)C(CC(C)C)NC(=O)/C=C/c1ccc(Cl)cc1 (stereo not drawn)	3.88	6.5	–
CCN(CC)CCOC(=O)c1ccc(N/C=C(/C#N)c2nc(-c3cccc(OC)c3)cs2)cc1	4.42	20.2	10.8

Structure (SMILES)	IC50 [µM]	IC90 [µM]	CC50 [µM]
O=C(/C=C/c1cccc([N+](=O)[O-])c1)c1cccs1	11.1	12.8	–
CCOC(=O)c1ccc(Nc2cc3ccccc3c(=O)[nH]2)cc1	13.4	> 100	–
O=C(CCSc1nnc(-c2ccccc2)o1)N1CCOCC1	13	18	–
Cc1ccc(-n2c(C)nc3c(cnn3-c3ccc(C)c(C)c3)c2=O)cc1C	–	–	> 40
O=C1CCCCc2sc(Br)c([N+](=O)[O-])c2N1	8.43	15.4	14.4
O=C1c2ccccc2C(=O)N1CCCCN(C(=O)c1cc([N+](=O)[O-])cc([N+](=O)[O-])c1)c1ccc(Cl)cc1	1.23	1.65	–
Nc1ccccc1SCC(=O)Nc1nc(-c2ccccc2)cs1	–	> 100	> 40
O=C(COC(=O)c1sc2ccccc2c1Cl)NC1CCCCC1	12.7	> 100	> 40
CC(C)Cc1cc(C(=O)Nc2cc(Br)ccc2O)no1	3.9	> 100	26.5
CSc1ccc(/C=C/C(=O)c2ccc(O)cc2)cc1	9.87	13.7	30.7
CCCCOC(=O)Nc1ccc(C)c(Cl)c1	–	> 100	–
CC/C(=C(\c1ccc(O)cc1)c1ccc(OCCN(C)C)cc1)c1ccccc1	8.76	12.3	14.1
CNC1=C(N(C(C)=O)c2ccc(Br)cc2)C(=O)c2ccccc2C1=O	0.654	2.54	10
Cc1nn(-c2ccccc2)c(N)c1C(c1ccc(C(C)C)cc1)c1c(C)nn(-c2ccccc2)c1N	8.73	13	> 40
Cn1c(-c2ccccc2)cc2c3no[n+]([O-])c3ccc21	< 0.195	0.445	2.6
O=[N+]([O-])c1cc(S(=O)(=O)Nc2ccccc2)ccc1N1CCN(c2ccccc2)CC1	14.5	25.5	28.2
c1ccc(CN2CCC(Nc3nc(-c4cccs4)nc4ccccc34)CC2)cc1	4.78	6.93	17.5
CC1CC1C(=O)Nc1ccc(-c2ccccc2)cc1 (stereo not drawn)	0.31	> 100	–
CCn1c(=O)c(C(=O)Nc2nc3ccccc3[nH]2)c(O)c2ccccc21	0.388	0.423	> 40
Cc1ccc(-c2nsc(SCC(=O)Nc3ccc4c(c3)OCO4)n2)cc1	0.892	2.51	–
Nc1ccccc1Nc1cc(-c2ccccc2)[nH]n1	–	> 100	–
COc1ccc(Br)cc1C(C[N+](=O)[O-])c1c(N)n(C)c(=O)n(C)c1=O (stereo not drawn)	8.08	12.5	9.3
COc1ccc(N2C(=O)NC(=O)/C(=C/c3cccc(OC(=O)c4cccs4)c3)C2=O)cc1Cl	5.35	17.5	–
CC(C)(C)C1CCc2c(sc3nc(SCC(N)=O)nc(N)c23)C1 (stereo not drawn)	24.8	> 100	> 40
O=C(CN1CCN(CC(=O)Nc2ccc(OCc3ccccc3)cc2)CC1)Nc1ccc(F)cc1	34.5	> 100	–
Cc1ccc(Nc2cc(C)nc(NCc3ccccc3)n2)cc1	6.69	9.45	> 40
